Columns and labels:
Bacillus subtilis [1] = assay: Minimal inhibitory concentration with cultures of Bacillus subtilis; assay type: cell-based; details: in experiments; organism not given
Description: Principally, the efficacy of a drug depends on permeability (first selection), the degree of inhibition of the biological target, rates of drug efflux, drug breakdown, off target binding, and sequestration. In the case of platensimycin, the biological target is FabF. […] Details of docked conformations are presented in the Supplementary Figure S2A,B. Platensimycin and QD-11 show the same estimated binding affinity to FabF (C163Q) (PDB ID: 2GFX) and both are potent antibiotics. […] More specifically, platensimycin and myrtemycin were active against Gram-positive bacteria (S. aureus, MRSA; E. faecium, VRE and B. subtilis) and also Gram-negative bacteria, E. coli (but only when co-adminsitered with Phe-Arg-β-naphthylamide dihydrochloride, PAβND, which is a bacterial efflux pump inhibitor) as described in [18]. For the purpose of comparison with the computational docking predictions, here we present data for B. subtilis.
The bottom row in Table 1 presents minimal inhibitory concentrations (MIC) for all of the substances assayed with gram-positive and gram-negative bacteria. […] Despite the fact that the heterocyclic G271 partitioned into the membrane very well, and can be docked well into FabF, it had virtually no antimicrobial activity.

[2] = Tensiometry at the air-water interface (Wilhelmy method); assay type: physicochemical; details: for log KAW (tens.): air-water partitioning coefficient, tensiometry, buffer pH 7.4; for Concentration at which changes of surface tension were detected: detected only at this concentration
Method: Surface tensions of subphase solutions with varying concentrations of platensimycin analogs were quantified using the Wilhelmy method with a piece of filter paper (Whatman, No. 1, 10.5 mm wide and 0.25 mm thick) used as a probe. The subphase buffer consisted of 200 mM KCl, 10 mM MgCl2, 5 mM CaCl2, 5 mM HEPES (Sigma-Aldrich, St. Louis, MO, USA) titrated to a pH of 7.4 with KOH. The pressure sensor (model 601, NIMA, Coventry, UK) was calibrated using a 100 mg weight. Water surface tension was measured to be […], after calibration. […] The surface activity and values for molecular area at the surface of the air-water interface (As), the partition coefficient at the air-water interface of the surface active molecule (KAW), and the membrane partitioning coefficient (Kmem), were determined as described previously.
The analysis of interfacial adsorption data was performed in the general framework of the Gibbs equation (1) dπ=∑Γidμi where dπ represents a small change in surface pressure, Γi is surface excess of component i and dμi is the small change of chemical potential of that component in the aqueous phase. For one adsorbing component, in an ideal case the Gibbs isotherm takes the form (2) dπ=RTΓd ln C where surface excess is defined as the surface density of molecules Γ = 1/(NAaS), NA is Avogadro’s number and aS is the area requirement for the molecule at the surface. The adsorbing substance gradually saturates the surface; the process that can be approximated by a Langmuir isotherm: (3) Γ=Γ∞lnKAW⋅C/1+KAW⋅C
Thus, beyond a certain bulk concentration, Γ approaches a constant value of Γ∞ and in that range of concentrations a linear relationship holds: (4) Γ∞=(1/RT)dπ/d ln C
To evaluate the partition coefficient for an air-water interface (KAW) and monolayers (Klip), the integral form of this equation attributed to Szyszkowski and previously applied to monolayers by Seelig and coworkers was used: (5) π=RTΓ∞ln(KAWC+1)
As was shown in Suomolainen 2004 [5], the x-intercept of the fitting line of experimental π-lnC curve would approximate the inverse partitioning coefficient 1/KAW, measured at the air-water interface.

[3] = Langmuir monolayer pressure-area isotherms; assay type: physicochemical, E. coli; details: for log Klip @ 20 mN/m, Measured: E. coli polar lipid monolayer, pH 7.4, ~20 °C; for Effective Molec. Area (ad): area taken by the drug in the monolayer, from slopes of log(ΔArea) vs. surface pressure; for log Klip @ 35 mN/m, Corrected: corrected to the monolayer-bilayer equivalence pressure 35 mN/m (Equation 6)
Method: All Langmuir monolayer experiments were done with a two-barrier rectangular 22 cm × 6 cm trough (MicroTrough XS, Kibron Inc., Helsinki, Finland) placed in an Airclean hood. A Dyneprobe metal alloy needle was used as the Wilhelmy plate. Lipids used were E. coli total polar lipid extract from Avanti Polar Lipids (Alabaster, AL, USA) dissolved in chloroform or hexane to a final concentration of 0.2 mg/mL. Distribution of lipids onto the subphase was accomplished using a gastight 50 µL Hamilton® syringe (Hamilton, Reno, NV, USA). The subphase buffer was identical to the tensiometry buffer. Pressure—Area isotherms (monolayers) were performed at room temperature (~20 °C) from 114 to 18 cm^2 at a barrier rate of 20 mm/min. For each analog, isotherms were measured at least four times at every concentration.
In Langmuir experiments, the value of the bulk-monolayer (Klip) partitioning coefficient was determined in a similar way, using the deviations of surface pressure of monolayers measured at constant area. […] However, at this compression, strongly intercalating substances produced pressure shifts beyond the collapse pressure of 45–47 mN/m, which forced us to score Δπ from surface pressure of 20 mN/m achieved at ~80 Å^2/molecule. Klip1 obtained in this expanded state was than corrected for the lateral pressure increase from π1 = 20 to π2 = 35 mN/m, which has the same form as Equation (7) in [5]: (6) ln(Klip2)=ln(Klip1)−(π2−π1)adNA/RT
Here ad is the area taken by the drug in the plane of the monolayer.
To estimate ad we assumed equilibrium between the drug in the subphase and in the monolayer and equated its chemical potentials in the two phases: (7) μ0+RTln(χd)=μ0σ+RTln(χdσ)+π⋅adNA
The right part with indexes σ represents the surface parameters of standard chemical potential µ0σ and drug mole fraction χdσ , whereas the left part represents the bulk parameters. Defining lnKlip = µ0σ −µ0 one can rearrange this equation as (8) lnKlip−lnχdσ−lnχd=π⋅adNA/RT
Differentiating with respect to π gives (9) −RTd(lnχdσ)/NAdπ=ad
Thus the molecular area of the drug defines the slope of χdσ , with which the drug re-partitions back to the subphase as surface pressure π increases. We further assume that at a given surface pressure, insertion of nd drug molecules into the film comprised of nL lipid molecules with initial area A0, should dilate the film by ΔA. (10) nd/nL=ΔA/A0⋅aL/ad
The parameter aL, the area per lipid at that particular pressure, is taken from the control pressure-area isotherm with no drug. The mole fraction of the drug in the monolayer χdσ = nd/(nd + nL) is related to the extent of monolayer dilation ΔA (11) ΔA=ad⋅nd=adnL⋅χdσ/1−χdσ
On the assumption that χdσ is small, ΔA is proportional to the mole fraction of the drug. In Equation (4) we substitute and obtain (12) −kTd(lnΔA)/dπ=ad
Thus, the molecular area of the drug can be determined from the logarithmic slope of ΔA on surface pressure. Once we know ad, we can introduce a correction to Klip due to lateral pressure change ([…]). In addition, we can estimate the molar ratio of drug-to-lipid, the mole fraction χdσ and the partitioning constant. From the extent of monolayer dilation at a constant surface pressure (chosen to be 20 mN/m), the apparent bulk-monolayer partitioning coefficient Klip could be independently estimated as Klip=χdσ/χd , where […] = Cd/55 represents the drug mole fraction in the subphase.

[4] = test system: A98S MscS in the cytoplasmic membrane of E. coli; assay: Patch-clamp of A98S MscS in excised spheroplast patches (activation midpoint shift); details: for Redistribution / return of activation midpoint: within the observation time, Supplementary Figure S4; for log Kmem (patch-clamp): x-intercept of midpoint shift (∆p0.5) vs. concentration, native E. coli membrane, cytoplasmic side
Method: A pB10b vector was used to house and express the mscS gene in the triple-knockout E. coli strain MJF465 (mscS^−, mscL^−, mscK^−). The A98S MscS mutant, generated and partially characterized previously, was chosen for its higher sensitivity to inner leaflet drug partitioning.
Spheroplasts were generated as described previously. The experimental bath solution contained 400 mM sucrose, 200 mM KCl, 50 mM MgCl2, 5 mM CaCl2, and 5 mM HEPES and was titrated to pH 7.4 with KOH. Membrane patches were obtained on borosilicate glass pipettes and recorded at 30 mV pipette voltage set by a microelectrode amplifier. The midpoint of activation for channels in each patch was determined at two-minute intervals for the duration of the experiment via a 1 s ramp of saturating pressure. Analogs of platensimycin were pre-diluted in either ethanol or bath solution and perfused into the bath to achieve the desired concentration; control injections of equivalent volumes of ethanol had no effect on the midpoint of activation. Negative pressure (suction) was applied with the HSPC-1 high speed pressure clamp apparatus from ALA Scientific. Programming of the pressure protocols and data analysis was performed with the PClamp10 suite (Axon Instr., Foster City, CA, USA). The principle of lateral pressure measurements using two experimental systems, lipid monolayers and patch-clamp, is illustrated in Figure 1.
Similarly, the bulk-membrane partitioning coefficient (Kmem) was estimated from the values of relative increase in MscS activation pressure midpoint (p0.5) measured in patch-clamp experiments at different concentrations of intercalating agents by linear fit of Δp0.5 as a function of log(Cd).

Bacillus subtilis [5] = details: cited from earlier work; for MIC for B. subtilis: cultures of Bacillus subtilis, ref 22 (table title); for Activity against B. subtilis: Gram-positive
S. aureus, MRSA = test system: S. aureus, MRSA; set-up: method as in PMID 17707686; details: Gram-positive; cited from earlier work
E. faecium, VRE = test system: E. faecium, VRE; set-up: method as in PMID 17707686; details: Gram-positive; cited from earlier work
E. coli = test system: E. coli; set-up: method as in PMID 17707686; details: Gram-negative; only when co-administered with Phe-Arg-β-naphthylamide dihydrochloride (PAβND), efflux pump inhibitor; cited from earlier work

SMILES	Biological / antibiotic activity (Bacillus subtilis [1])	log KAW (tens.) [2]	Concentration at which changes of surface tension were detected [2]	log Klip @ 20 mN/m, Measured [3]	Effective Molec. Area (ad) [3] [Å^2]	log Klip @ 35 mN/m, Corrected [3]	Redistribution / return of activation midpoint [4]	MIC for B. subtilis (Bacillus subtilis [5]) [µg/mL]	log Kmem (patch-clamp) [4]	Effect on surface tension ([2]; up to 30 µM)	Effective Molec. Area (ad) ([3]; listed as platensimycin)	Activity against B. subtilis (Bacillus subtilis [5])	Activity against S. aureus, MRSA (S. aureus, MRSA)	Activity against E. faecium, VRE (E. faecium, VRE)	Activity against E. coli (E. coli)	Concentration in the subphase at which presence is detectable on isotherms [3]	Initial unilateral insertion into the membrane relative to flipping across the membrane ([4]; sequential additions)
O=C(CCN(Cc1cccnc1)Cc1cccnc1)Nc1c(O)ccc(C(=O)O)c1O [G258]	essentially no biological activity	4.2	10^−4 M	5.9	18	5.6	relatively fast	>512	–	–	–	–	–	–	–	–	–
Cn1ccnc1CN(CCC(=O)Nc1c(O)ccc(C(=O)O)c1O)Cc1nccn1C [G262]	essentially no biological activity	4.2	10^−4 M	5.9	17	5.6	did not return back	>512	–	–	–	–	–	–	–	–	–
O=C(CCN(Cc1ccc2c(c1)OCO2)Cc1ccc2c(c1)OCO2)Nc1c(O)ccc(C(=O)O)c1O [G271]	no antibiotic activity	4.5	–	6.1	18	5.8	did not return back	>512	6.1	–	–	–	–	–	–	–	–
CC12C[C@@]34C=CC(=O)[C@@](C)(CCC(=O)Nc5c(O)ccc(C(=O)O)c5O)C3[C@H](CC1C4)O2 (stereo partly drawn) [PL, platensimycin]	–	4.6	–	6.6	34	6.1	–	2	5.0	no visible effect	31–34 Å^2	active	active	active	active	–	–
CCCCN(CCCC)CCC(=O)Nc1c(O)ccc(C(=O)O)c1O [QD-06]	–	4.1	–	5.0	30	4.5	–	128	5.5	–	–	–	–	–	–	–	–
CC1(C)C2CC=C(CN(CCC(=O)Nc3c(O)ccc(C(=O)O)c3O)CC3=CCC4CC3C4(C)C)C1C2 [QD-11, myrtemycin]	–	6.1	–	6.7	31	6.2	–	4	5.7	–	–	active	active	active	active	10^−7 M	five to six times faster
CC1(C)C2CC=C(CNCCC(=O)Nc3c(O)ccc(C(=O)O)c3O)C1C2 (stereo not drawn) [QL-03]	–	5.0	–	5.6	28	5.2	–	>256	6.1	–	–	–	–	–	–	–	–

From article PMC4581228, “Membrane Affinity of Platensimycin and Its Dialkylamine Analogs” (International Journal of Molecular Sciences, 2015)
